From US9309242B2, “Substituted pyrido[2,3-b]pyrazines as FGFR kinase inhibitors” (priority 2011, dated 2016)

Assays:
FGFR1 (h) = FGFR1 (h) (Homo sapiens, UniProt P11362); experiment: FGFR1 (enzymatic assay), TR-FRET; type: biochemical; settings: read-out: FGFR 1 pIC50 (converted)
FGFR2 (h) = FGFR2 (h) (Homo sapiens, UniProt P21802); experiment: FGFR2 (enzymatic assay), TR-FRET; type: biochemical; settings: enzymatic assay; read-out: FGFR 2 pIC50 (converted)
How it was run: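 Phosphorylation of 500 nM Btn-Flt3 by human FGFR2 (150 ng/ml) is measured at 0.4 μM ATP. The buffer is 50 mM HEPES pH 7.5 containing 6 mM MnCl2, 1 mM DTT, 0.1 mM Na3VO4 and 0.01% Triton-X-100, and compound is tested at 1% DMSO final.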

FGFR4 (h) = FGFR4 (h) (Homo sapiens, UniProt P22455); experiment: FGFR4 (enzymatic assay), TR-FRET; type: biochemical; settings: FGFR 4 pIC50, enzymatic assay
[1] = molecular target: Ba/F3-FGFR4-transfected cells (Homo sapiens, UniProt P22455); experiment: Ba/F3-FGFR4 cellular proliferation assay, Alamar Blue; type: cell-based
How it was run: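 Step one: compound dilutions in DMSO are sprayed into wells. Step two: transfected Ba/F3-FGFR4 cells are added at 20000 per well and incubated 24 hours at 37° C. Step three: Alamar Blue is added for 4 hours and relative fluorescence is measured.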

Ba/F3-FGFR4-transfected cells, sequence (P22455 whole entry, change not shown): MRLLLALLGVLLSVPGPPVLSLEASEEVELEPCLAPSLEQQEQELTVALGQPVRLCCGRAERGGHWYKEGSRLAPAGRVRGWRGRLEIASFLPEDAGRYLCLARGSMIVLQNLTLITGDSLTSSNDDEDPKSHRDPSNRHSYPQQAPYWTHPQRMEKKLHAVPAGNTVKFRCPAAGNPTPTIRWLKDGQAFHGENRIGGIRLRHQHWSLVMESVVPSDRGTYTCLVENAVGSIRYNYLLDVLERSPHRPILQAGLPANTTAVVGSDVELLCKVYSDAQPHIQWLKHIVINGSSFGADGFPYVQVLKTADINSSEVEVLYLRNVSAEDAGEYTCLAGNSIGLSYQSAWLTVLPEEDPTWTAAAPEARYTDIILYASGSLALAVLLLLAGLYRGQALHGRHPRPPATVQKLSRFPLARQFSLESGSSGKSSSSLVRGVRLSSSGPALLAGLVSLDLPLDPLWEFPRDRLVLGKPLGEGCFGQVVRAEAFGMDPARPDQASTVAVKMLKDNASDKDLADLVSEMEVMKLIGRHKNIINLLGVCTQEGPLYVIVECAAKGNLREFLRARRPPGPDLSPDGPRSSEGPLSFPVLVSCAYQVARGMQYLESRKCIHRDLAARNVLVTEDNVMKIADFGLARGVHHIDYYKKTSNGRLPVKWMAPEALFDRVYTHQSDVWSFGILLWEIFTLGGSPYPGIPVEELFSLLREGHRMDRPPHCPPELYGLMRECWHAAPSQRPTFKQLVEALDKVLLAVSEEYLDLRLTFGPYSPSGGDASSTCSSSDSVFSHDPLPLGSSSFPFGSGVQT
FGFR2 (h), sequence (P21802 22-821): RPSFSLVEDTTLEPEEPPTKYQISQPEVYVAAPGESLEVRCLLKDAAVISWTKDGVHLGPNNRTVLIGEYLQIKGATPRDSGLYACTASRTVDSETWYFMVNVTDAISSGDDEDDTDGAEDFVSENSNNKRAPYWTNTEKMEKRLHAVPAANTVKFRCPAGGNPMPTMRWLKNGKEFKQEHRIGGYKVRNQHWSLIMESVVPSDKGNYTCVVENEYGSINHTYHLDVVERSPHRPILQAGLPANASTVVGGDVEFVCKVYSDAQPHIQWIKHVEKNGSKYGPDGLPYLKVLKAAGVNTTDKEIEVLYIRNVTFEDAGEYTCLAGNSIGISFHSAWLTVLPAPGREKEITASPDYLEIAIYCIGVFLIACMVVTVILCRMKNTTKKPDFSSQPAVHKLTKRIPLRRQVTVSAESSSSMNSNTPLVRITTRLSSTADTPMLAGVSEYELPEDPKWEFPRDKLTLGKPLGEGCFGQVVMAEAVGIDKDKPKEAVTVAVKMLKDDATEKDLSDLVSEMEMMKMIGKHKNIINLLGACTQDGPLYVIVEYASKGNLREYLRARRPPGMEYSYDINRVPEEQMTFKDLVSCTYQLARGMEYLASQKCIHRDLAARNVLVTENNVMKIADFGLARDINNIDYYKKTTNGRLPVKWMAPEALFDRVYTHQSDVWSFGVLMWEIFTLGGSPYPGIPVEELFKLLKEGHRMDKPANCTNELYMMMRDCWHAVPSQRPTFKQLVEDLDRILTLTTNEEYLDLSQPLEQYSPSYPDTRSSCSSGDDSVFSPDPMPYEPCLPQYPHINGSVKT
FGFR4 (h), sequence (P22455 22-802): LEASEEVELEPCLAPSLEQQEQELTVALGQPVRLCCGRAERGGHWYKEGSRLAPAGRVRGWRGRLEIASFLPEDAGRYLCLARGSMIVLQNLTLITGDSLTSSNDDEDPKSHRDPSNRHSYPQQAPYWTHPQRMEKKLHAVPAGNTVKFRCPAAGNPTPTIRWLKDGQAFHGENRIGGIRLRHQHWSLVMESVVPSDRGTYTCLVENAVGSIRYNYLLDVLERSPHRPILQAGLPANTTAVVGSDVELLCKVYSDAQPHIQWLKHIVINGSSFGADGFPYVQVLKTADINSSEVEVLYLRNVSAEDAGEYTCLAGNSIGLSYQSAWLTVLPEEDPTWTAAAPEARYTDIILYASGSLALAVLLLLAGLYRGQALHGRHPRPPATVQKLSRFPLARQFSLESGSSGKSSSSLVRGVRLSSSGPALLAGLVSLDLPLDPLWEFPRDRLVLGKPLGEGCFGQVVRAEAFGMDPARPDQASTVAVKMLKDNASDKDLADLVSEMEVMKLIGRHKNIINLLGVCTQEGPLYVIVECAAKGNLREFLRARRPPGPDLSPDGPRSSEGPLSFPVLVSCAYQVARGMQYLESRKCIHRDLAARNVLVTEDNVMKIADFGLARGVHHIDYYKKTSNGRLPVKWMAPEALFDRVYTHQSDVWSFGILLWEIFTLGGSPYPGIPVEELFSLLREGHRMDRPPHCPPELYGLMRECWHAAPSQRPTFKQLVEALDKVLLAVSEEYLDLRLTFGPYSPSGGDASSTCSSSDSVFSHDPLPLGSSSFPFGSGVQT
FGFR1 (h), sequence (P11362 22-822): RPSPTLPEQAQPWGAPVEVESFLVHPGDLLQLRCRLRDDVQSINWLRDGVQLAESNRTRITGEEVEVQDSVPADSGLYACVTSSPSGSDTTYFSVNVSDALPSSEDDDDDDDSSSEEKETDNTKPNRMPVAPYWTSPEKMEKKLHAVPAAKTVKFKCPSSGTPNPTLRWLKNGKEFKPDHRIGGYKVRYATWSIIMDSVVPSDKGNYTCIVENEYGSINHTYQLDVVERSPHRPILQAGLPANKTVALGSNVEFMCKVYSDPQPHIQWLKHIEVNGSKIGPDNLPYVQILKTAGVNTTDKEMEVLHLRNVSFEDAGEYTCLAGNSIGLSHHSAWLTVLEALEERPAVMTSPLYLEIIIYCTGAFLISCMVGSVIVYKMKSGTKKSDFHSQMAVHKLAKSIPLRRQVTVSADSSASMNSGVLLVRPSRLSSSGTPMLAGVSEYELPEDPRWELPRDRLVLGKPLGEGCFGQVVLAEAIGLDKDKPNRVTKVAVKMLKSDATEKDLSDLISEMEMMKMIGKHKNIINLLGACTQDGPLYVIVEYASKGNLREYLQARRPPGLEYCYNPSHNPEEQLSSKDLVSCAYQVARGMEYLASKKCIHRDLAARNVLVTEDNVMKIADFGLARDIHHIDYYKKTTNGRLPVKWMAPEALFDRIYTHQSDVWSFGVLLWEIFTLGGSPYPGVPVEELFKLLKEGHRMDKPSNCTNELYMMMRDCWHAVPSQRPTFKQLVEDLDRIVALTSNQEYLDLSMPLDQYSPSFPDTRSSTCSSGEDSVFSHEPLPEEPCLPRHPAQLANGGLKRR

| Compound | IC50 (FGFR1 (h)) [nM] | IC50 (FGFR2 (h)) [nM] | IC50 (FGFR4 (h)) [nM] | BAF3-FGFR4 pIC50 [1] | melting point [°C] |
| --- | --- | --- | --- | --- | --- |
| COc1cc(OC)c(F)c(N(CC2CCC(=O)N2CCO)c2ccc3ncc(-c4cnn(C)c4)nc3n2)c1 (stereo not shown) [Compound 194] | 11.2 | 12 | 44.7 | 5.50 | 102 |
| COc1cc(OC)c(F)c(N(CCN)c2ccc3ncc(-c4cnn(C)c4)nc3n2)c1 [Compound 168] | 1.7 | 2.04 | 4.57 | 6.72 |  |
| COc1cc(OC)cc(N(Cc2ncn(CCO)n2)c2ccc3ncc(-c4cnn(C)c4)nc3n2)c1 [Compound 205] | 3.89 | 5.13 | 47.9 | 5.62 |  |
| COc1cc(OC)c(F)c(N(CCN2CCCC2=O)c2ccc3ncc(-c4cnn(C)c4)nc3n2)c1 [Compound 157] | 10.5 | 6.31 | 26.3 | 6.08 |  |
| COc1cc(OC)cc(N(Cc2nn[nH]n2)c2ccc3ncc(-c4cnn(C)c4)nc3n2)c1 [Compound 197] | 22.4 | 11.2 | 34.7 | <5 |  |
| COc1cc(OC)cc(N(CCN2CCOCC2)c2ccc3ncc(-c4cnn(C)c4)nc3n2)c1 [Compound 146] | 6.76 | 4.68 | 17.8 | ~6.58 |  |
| COC(=O)CN(c1ccc2ncc(-c3cnn(C)c3)nc2n1)c1cc(OC)cc(OC)c1F [Compound 214] | 2.4 | 2.57 | 11.2 | 6.52 |  |
| COc1cc(OC)c(F)c(N(CC(=O)c2cnn(C)c2)c2ccc3ncc(-c4cnn(C)c4)nc3n2)c1 [Compound 225] | 6.61 | ~7.08 | 36.3 | 5.96 |  |
| COc1cc(/N=c2\ccc3ncc(-c4cnn(C)c4)nc3n2Cc2c(C)noc2C)c(F)c(OC)c1 [Compound 179] | 2.95 | 2.57 | 3.47 | <5.52 |  |
| COc1cc(OC)cc(N(Cc2ncc[nH]2)c2ccc3ncc(-c4ccncc4)nc3n2)c1 [Compound 202] | 1.12 | 1.74 | 2.82 | 6.81 |  |
| COc1cc(OC)c(F)c(N(Cc2ncc[nH]2)c2ccc3ncc(-c4cn[nH]c4)nc3n2)c1 [Compound 190] | 0.617 | 1.29 | 1.12 | 8.08 |  |
| CCOCc1c[nH]c(CN(c2ccc3ncc(-c4cnn(C)c4)nc3n2)c2cc(OC)cc(OC)c2F)n1 [Compound 206] | 1.38 | 4.17 | 2.95 | 7.34 |  |
| COc1cc(OC)c(F)c(N(CC2CCC(=O)N2C)c2ccc3ncc(-c4cnn(C)c4)nc3n2)c1 (stereo not shown) [Compound 159] | 8.51 | 6.61 | 20.4 | 6.20 |  |
| COc1cc(/N=c2\ccc3ncc(-c4cnn(C)c4)nc3n2CCN)c(F)c(OC)c1 [Compound 167] | 1.86 | 2.19 | 4.17 | 6.31 |  |
| COc1cc(/N=c2\ccc3ncc(-c4cnn(C)c4)nc3n2CC2CCC(=O)N2C)c(F)c(OC)c1 (stereo not shown) [Compound 158] | 1.74 | 1.86 | 2.51 | 6.78 |  |
| COc1cc(/N=c2\ccc3ncc(-c4cnn(C)c4)nc3n2Cc2cc(C)on2)c(F)c(OC)c1 [Compound 181] | 1.51 | 2.19 | 1.05 | 7.55 |  |
| COc1cc(OC)cc(N(CC2CCCOC2)c2ccc3ncc(-c4cnn(C)c4)nc3n2)c1 (stereo not shown) [Compound 166] | 5.62 | 3.16 | 9.33 | 6.24 |  |

| Compound | IC50 (FGFR1 (h)) [nM] | IC50 (FGFR2 (h)) [nM] | IC50 (FGFR4 (h)) [nM] | BAF3-FGFR4 pIC50 [1] | melting point [°C] |
| --- | --- | --- | --- | --- | --- |
| COc1cc(OC)c(F)c(N(Cc2c(C)noc2C)c2ccc3ncc(-c4cnn(C)c4)nc3n2)c1 [Compound 178] | 11.2 | 7.41 | 19.5 | 5.83 |  |
| COc1cc(OC)cc(N(Cc2ncc[nH]2)c2ccc3ncc(-c4ccccc4)nc3n2)c1 [Compound 152] | 1.07 | 1.48 | 1.41 | 7.46 |  |
| COc1cc(/N=c2\ccc3ncc(-c4cnn(C)c4)nc3n2CC2COC2)c(F)c(OC)c1 [Compound 143] | 1.26 | 1.51 | 1.02 | 5.29 |  |
| COc1cc(OC)c(F)c(N(Cc2nc(Br)c[nH]2)c2ccc3ncc(-c4cnn(C)c4)nc3n2)c1 [Compound 238] | 0.479 | 2.14 | 1.12 | 8.06 |  |
| COc1cc(OC)cc(N(CC2COC2)c2ccc3ncc(-c4cnn(C)c4)nc3n2)c1 [Compound 142] | 16.2 | 7.94 | 30.2 | 5.10 |  |
| COc1cc(OC)c(F)c(N(Cc2ncc[nH]2)c2ccc3ncc(N4CCOCC4)nc3n2)c1F [Compound 215] | 0.741 | 2.09 | 2.14 | 7.54 |  |
| COc1cc(OC)cc(N(CCN2CCCC2=O)c2ccc3ncc(-c4cnn(C)c4)nc3n2)c1 [Compound 151] | 38.9 | 15.1 | 91.2 | 5.49 |  |
| COc1cc(O)c(F)c(N(Cc2ncc[nH]2)c2ccc3ncc(-c4cnn(C)c4)nc3n2)c1 [Compound 96] | 0.741 | 1.58 | 1.78 | 7.16 |  |
| COc1cc(OC)c(F)c(N(CCNC(C)=O)c2ccc3ncc(-c4cnn(C)c4)nc3n2)c1 [Compound 242] | 1.17 | 2.95 | 2.24 | 7.22 |  |
| COc1cc(OC)c(F)c(N(Cc2cc(C)no2)c2ccc3ncc(-c4cnn(C)c4)nc3n2)c1 [Compound 185] | 0.851 | 1.51 | 0.977 | 7.39 |  |
| CCn1cc(-c2cnc3ccc(N(Cc4ncc[nH]4)c4cc(OC)cc(OC)c4F)nc3n2)cn1 [Compound 223] | 0.55 | 1.58 | 1.29 | 7.95 |  |
| COc1cc(OC)c(F)c(N(CC2COC2)c2ccc3ncc(-c4cnn(C)c4)nc3n2)c1 [Compound 144] | 3.89 | 2.82 | 5.25 | 6.13 |  |
| COc1cc(OC)cc(N(CCO)c2ccc3ncc(-c4ccncc4)nc3n2)c1 [Compound 213] | 4.27 | 5.62 | 25.1 | 6.15 |  |
| COc1cc(OC)c(F)c(N(CCN(C2COC2)C2COC2)c2ccc3ncc(-c4cnn(C)c4)nc3n2)c1F (single isomer, unassigned) [Compound 163] | 0.977 | 1.91 | 3.24 | 7.32 |  |
| COc1cc(OC)c(F)c(N(CC(C)(C)O)c2ccc3ncc(-c4cnn(CC(C)(C)O)c4)nc3n2)c1 (single isomer, unassigned) [Compound 208] | 3.63 | 5.25 | 18.6 | 6.16 |  |
| COc1cc(OC)c(F)c(N(CCN(C2COC2)C2COC2)c2ccc3ncc(-c4cnn(C)c4)nc3n2)c1 [Compound 222] | 2.24 | 5.25 | 15.5 | 6.55 |  |
